Data on seven compounds can be found in US12605424B2 (priority 2019, dated 2026).

Data set [1] deals with human bronchial epithelial cells (HBECs). In kind it is cell-based.
Data set [2] deals with Na^+/K^+-ATPase. It counts as cell-based, human.
Data set [3] has as its target 4 pS amiloride-sensitive highly Na^+ selective channel (ENaC) (Mus musculus, UniProt Q61180+Q9WU38+Q9WU39). In kind it is cell-based.
For data set [4], the target named is CFTR (Homo sapiens, UniProt P13569). In kind it is cell-based.
In data set [5] the test system is 16 pS non-selective cation channel. It counts as cell-based, mouse. The following applies: read-out: IC50, decrease of open probability of 16 pS channel.
The target in data set [6] is ENaC (Homo sapiens, UniProt P37088+P51168+P51170). It counts as cell-based.
ENaC, sequence (P51168 whole entry): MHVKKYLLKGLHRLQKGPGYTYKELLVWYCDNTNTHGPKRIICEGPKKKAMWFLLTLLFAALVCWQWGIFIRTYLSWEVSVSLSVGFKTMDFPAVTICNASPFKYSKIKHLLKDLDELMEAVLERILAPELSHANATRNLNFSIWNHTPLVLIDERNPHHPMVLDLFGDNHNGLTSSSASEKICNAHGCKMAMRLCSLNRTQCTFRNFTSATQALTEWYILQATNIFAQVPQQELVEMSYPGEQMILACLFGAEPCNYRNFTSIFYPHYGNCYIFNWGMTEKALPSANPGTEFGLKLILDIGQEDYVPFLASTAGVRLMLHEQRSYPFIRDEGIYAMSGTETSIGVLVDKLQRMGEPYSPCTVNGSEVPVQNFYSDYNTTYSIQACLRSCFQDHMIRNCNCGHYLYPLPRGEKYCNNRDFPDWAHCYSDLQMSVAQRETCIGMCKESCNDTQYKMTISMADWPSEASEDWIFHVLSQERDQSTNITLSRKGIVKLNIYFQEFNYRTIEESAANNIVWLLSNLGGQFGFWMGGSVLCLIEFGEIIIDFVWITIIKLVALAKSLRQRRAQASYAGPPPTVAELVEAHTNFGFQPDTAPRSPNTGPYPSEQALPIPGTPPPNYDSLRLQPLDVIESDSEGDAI
ENaC, sequence (P51170 whole entry): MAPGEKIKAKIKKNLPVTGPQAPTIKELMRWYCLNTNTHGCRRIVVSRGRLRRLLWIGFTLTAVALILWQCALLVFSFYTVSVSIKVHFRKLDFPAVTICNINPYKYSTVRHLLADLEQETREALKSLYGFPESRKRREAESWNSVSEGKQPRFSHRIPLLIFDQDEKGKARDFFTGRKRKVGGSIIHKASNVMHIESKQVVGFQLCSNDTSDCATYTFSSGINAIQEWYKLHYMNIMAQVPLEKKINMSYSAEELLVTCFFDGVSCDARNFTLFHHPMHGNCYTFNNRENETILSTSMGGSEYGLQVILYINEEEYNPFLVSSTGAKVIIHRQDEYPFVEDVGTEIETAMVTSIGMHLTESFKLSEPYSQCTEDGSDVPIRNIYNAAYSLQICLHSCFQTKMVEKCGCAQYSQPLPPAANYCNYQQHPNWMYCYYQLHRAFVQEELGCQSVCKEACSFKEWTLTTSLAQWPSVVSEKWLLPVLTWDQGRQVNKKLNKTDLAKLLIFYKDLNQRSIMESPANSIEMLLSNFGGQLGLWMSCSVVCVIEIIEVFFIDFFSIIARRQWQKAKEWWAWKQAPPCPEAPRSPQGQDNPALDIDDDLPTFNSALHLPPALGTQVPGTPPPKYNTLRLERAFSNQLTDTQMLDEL
ENaC, sequence (P37088 whole entry): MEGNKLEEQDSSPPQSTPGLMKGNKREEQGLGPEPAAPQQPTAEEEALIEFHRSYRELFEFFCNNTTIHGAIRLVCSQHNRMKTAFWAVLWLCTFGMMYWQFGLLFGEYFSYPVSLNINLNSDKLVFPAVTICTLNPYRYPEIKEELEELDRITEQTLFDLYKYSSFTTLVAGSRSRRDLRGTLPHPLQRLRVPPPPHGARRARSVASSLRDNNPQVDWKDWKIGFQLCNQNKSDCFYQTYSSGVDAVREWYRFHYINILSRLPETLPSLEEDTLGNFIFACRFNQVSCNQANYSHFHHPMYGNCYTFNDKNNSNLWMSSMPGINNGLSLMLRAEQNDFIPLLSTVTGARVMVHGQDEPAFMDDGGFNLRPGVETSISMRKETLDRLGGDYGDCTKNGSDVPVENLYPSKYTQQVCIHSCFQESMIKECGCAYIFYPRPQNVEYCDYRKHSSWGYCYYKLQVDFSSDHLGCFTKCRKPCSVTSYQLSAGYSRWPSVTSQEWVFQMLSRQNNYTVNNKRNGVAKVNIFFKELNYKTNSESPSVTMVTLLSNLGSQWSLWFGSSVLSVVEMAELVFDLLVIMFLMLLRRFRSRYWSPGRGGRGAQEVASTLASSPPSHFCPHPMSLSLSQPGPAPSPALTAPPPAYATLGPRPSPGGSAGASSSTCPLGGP
For data set [7], the target named is α, β, γ-hENaC (Homo sapiens, UniProt P37088+P51168+P51170). In kind it is cell-based.
α, β, γ-hENaC, sequence (P51168 whole entry): as the sequence (P51168 whole entry) above
α, β, γ-hENaC, sequence (P51170 whole entry): as the sequence (P51170 whole entry) above
α, β, γ-hENaC, sequence (P37088 whole entry): as the sequence (P37088 whole entry) above
Data set [8] concerns Br2 (600/30) exposed neonatal mice. To be noted: mouse, in vivo.
For data set [9], the system named is C57BL/6 mice exposed to COCl2. To be noted: mouse, in vivo.
For data set [10], the system named is P aeruginosa. In kind it is cell-based, mouse.
The test system of data set [11] is Neonatal mice exposed to Cl2. The following applies: mouse, in vivo.
Data set [12] relates to C57bl/6 mice exposed to Br2. To be noted: mouse, in vivo.
The conditions of data set [13]: mouse, in vivo; cited from earlier work.
Data set [14] relates to C57BL/6 mice exposed to Cl2, Br2 or COCl2. The following applies: mouse, in vivo.
The conditions of data set [15]: mouse, in vivo.
The subject of data set [16] is Mice having sickle cell disease exposed to chlorine. The following applies: mouse, in vivo.
The conditions of data set [17]: mouse, in vivo. This is another data set of the same source.
The test system of data set [18] is C57BL/6 mice exposed to Br2 gas. The following applies: mouse, in vivo.
Data set [19] has as its system P. aeruginosa (strain PAK). The following applies: mouse, in vivo.

Like-named read-outs stand apart in the source and are kept apart here. Bounds are passed on as bounds.

4 pS amiloride-sensitive highly Na^+ selective channel (ENaC), sequence (Q9WU38 whole entry): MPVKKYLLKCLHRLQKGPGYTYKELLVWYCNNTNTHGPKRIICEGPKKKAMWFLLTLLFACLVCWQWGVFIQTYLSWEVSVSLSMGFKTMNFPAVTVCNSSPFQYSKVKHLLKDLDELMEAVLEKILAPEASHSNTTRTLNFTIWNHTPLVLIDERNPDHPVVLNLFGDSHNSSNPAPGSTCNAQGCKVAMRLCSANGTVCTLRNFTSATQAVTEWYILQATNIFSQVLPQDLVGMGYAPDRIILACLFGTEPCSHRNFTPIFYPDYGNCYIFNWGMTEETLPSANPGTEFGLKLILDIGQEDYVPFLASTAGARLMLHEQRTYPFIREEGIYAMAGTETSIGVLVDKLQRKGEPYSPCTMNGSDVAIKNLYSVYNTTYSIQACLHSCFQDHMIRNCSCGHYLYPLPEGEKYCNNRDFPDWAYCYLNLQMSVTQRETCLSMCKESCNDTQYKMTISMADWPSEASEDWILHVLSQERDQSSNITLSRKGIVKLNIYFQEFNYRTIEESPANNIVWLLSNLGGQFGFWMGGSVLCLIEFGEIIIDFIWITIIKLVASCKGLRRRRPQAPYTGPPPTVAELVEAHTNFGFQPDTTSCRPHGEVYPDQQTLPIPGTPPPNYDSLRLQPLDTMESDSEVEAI
4 pS amiloride-sensitive highly Na^+ selective channel (ENaC), sequence (Q9WU39 whole entry): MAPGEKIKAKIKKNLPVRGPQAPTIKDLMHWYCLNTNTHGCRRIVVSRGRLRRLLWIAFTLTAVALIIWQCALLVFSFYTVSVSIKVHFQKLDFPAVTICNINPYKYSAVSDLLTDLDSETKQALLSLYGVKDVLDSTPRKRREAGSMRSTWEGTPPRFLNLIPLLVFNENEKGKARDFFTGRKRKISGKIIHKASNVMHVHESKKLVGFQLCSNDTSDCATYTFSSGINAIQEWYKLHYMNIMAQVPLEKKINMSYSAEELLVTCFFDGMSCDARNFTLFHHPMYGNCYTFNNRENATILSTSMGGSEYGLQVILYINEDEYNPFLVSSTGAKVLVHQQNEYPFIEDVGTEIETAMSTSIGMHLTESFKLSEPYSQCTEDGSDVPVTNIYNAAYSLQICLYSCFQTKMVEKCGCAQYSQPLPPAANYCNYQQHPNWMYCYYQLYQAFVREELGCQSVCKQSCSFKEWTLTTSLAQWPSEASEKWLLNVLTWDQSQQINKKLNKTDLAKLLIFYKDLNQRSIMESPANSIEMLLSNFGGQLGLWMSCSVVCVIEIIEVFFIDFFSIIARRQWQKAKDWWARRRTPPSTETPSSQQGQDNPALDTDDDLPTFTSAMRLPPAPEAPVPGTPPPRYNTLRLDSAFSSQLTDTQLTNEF
4 pS amiloride-sensitive highly Na^+ selective channel (ENaC), sequence (Q61180 whole entry): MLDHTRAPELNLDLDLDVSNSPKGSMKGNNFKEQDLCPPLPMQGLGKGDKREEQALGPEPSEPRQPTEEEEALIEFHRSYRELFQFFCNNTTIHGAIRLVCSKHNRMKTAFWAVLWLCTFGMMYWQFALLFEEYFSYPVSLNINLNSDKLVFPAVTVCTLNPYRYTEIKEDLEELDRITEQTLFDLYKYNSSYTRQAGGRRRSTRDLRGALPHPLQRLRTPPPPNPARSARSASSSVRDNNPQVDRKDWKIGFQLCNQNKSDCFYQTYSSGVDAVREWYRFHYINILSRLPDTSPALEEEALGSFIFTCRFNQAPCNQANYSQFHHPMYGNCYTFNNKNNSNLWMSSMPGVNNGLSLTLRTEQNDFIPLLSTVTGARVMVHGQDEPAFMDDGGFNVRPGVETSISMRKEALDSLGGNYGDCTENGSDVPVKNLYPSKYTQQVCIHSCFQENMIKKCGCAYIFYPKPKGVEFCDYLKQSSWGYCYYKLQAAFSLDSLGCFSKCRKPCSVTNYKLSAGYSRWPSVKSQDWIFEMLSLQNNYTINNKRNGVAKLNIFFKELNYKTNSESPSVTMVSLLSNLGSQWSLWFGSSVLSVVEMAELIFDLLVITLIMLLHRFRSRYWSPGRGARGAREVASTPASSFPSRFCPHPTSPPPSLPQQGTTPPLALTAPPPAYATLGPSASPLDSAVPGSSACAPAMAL

Take `BrBr` [Br2, bromine]: in data set [1], the “ER stress marker ATF4” value was “increased” and the “ER stress marker CHOP” value is “remained unaltered”.
Broadly, the EC50 is the concentration that produces a half-maximal response. One may read the IC50 as the concentration that gives 50% inhibition. ferric chloride heme: in [2], the “Na^+/K^+-ATPase function (ouabain-sensitive current)” value is on record as “did not impair”. Further, the EC50 in [3] (read-out: EC50, inhibition of ENaC and cation Na^+ channels in mouse alveolar cells) was determined as 125 nM; in [6] (read-out: EC50, inhibition of trans-epithelial Na^+ transport across human airway cells), 500 nM. In addition, the IC50 in data set [3] (read-out: IC50, decrease of open probability of 4 pS channel) is 125 nM; in [5] it was 125 nM; in data set [6] (read-out: IC50, inhibition of amiloride-sensitive ENaC short circuit current), roughly 500 nM. Further, the “ER stress marker ATF4” value in [1] is “increased”. Further, in data set [1], the “ER stress marker CHOP” value is reported as “increased”. The “forskolin-stimulated, GlyH-101-inhibited CFTR currents” value in data set [4] is “inhibited amiloride-sensitive, ENaC, but not forskolin-stimulated, GlyH-101-inhibited, CFTR, currents”. Also, the ENaC activity result in data set [6] was “totally inhibited”. In addition, the transepithelial resistance result in [6] is listed as “above 1500 Ohms*cm^2”. Also, in [7], the “Na^+ current (whole cell)” value is “inhibited”. Moreover, the “inhibition of whole-cell Na^+ current” value in data set [7] (1 µM) is listed as 80%.
For Hemopexin [Hpx], in data set [8], the mortality result is given as “not effective” and the systemic hypoxia result is listed as “not effective”. Moreover, in data set [9], the BALF protein levels result is “reduced BALF protein levels”. In addition, the “bactericidal function of neutrophils (bacterial colonies on agar)” value in data set [10] is reported as “improved neutrophil function”. Further, in data set [11], the “apical cytoplasm of the bronchial epithelium (histology)” value is “exhibited some improvement”, the “cellularity of alveolar septae (histology)” value is on record as “exhibited some recovery”, the “mean linear intercept (MLI)” value was “decreased MLI” and the survival result is listed as “improved survival”. The “survival (Kaplan Meier)” value in data set [12] is on record as “improved survival”. Moreover, the serum half-life result in data set [13] was “approximately 7 days”. Further, in data set [14], the BALF heme result is on record as “attenuated”, the “BALF inflammatory cell count” value is “attenuated”, the BALF protein levels result is recorded as “reduced” and the BALF proteins result was “attenuated”. Moreover, in data set [14], the “mortality (Kaplan-Meier)” value was “reduced mortality”. The “time plasma level is maintained / remains stable” value in data set [15] is “at least 24 h”. Also, in [15] (im), the “plasma bioavailability (plasma concentration)” value is “about 25 μg/ml”. The probability of survival result in data set [16] is on record as “higher probability of survival”. The “plasma [IgM] relative to control” value in [17] is recorded as no more than 8%. Further, in data set [18] (ip), the “ATF4 and CHOP, immunohistochemical staining of lung sections” value was “attenuated ATF4 and CHOP levels around airways and completely abrogated the ER stress markers in the lung parenchyma”; the BALF elastase activity entry is “lower”; the BALF protein levels result is reported as “significantly reduced”; the “BALF total cell count” value is reported as “significantly reduced”. For the same compound, in [18] (ip), the “PV curve, lung compliance and inspiratory capacity” value is “prevented the shifting of the PV curve”; the “alveolar Lm” value is recorded as “reduced”; the “lung ATF4 (immunoblot)” value is given as “low levels”; the “lung CHOP (immunoblot)” value is reported as “low levels”. Also, in data set [18] (ip), the “lung collagen levels on Masson's trichrome staining” value is recorded as “significantly reduced”, the lung hydroxyproline levels entry is recorded as “significantly reduced”, the “overall mortality (Kaplan-Meier)” value is reported as “reduced overall mortality” and the plasma elastase levels result was “lower”. Further, the plasma heme result in data set [18] (ip) was “reduced”. For the same compound, in data set [19], the “bacterial colonies from lung homogenates on agar plates” value is “grew fewer bacterial colonies” and the survival entry was “improved survival”.
Turning to “heme-Hpx complex: complex of heme with hemopexin”, the serum half-life entry in [13] is given as “approximately 7 h”.
For the compound `OCC1OC([S][Au])C(O)C(O)C1O` [ATG, gold(1+);(3R,4S,5S,6R)-3,4,5-trihydroxy-6-(hydroxymethyl) oxane-2-thiolate, reference compound], in data set [8], the mortality entry is listed as “not effective” and the systemic hypoxia result is given as “not effective”.
For the compound `O=C(/C=C/c1ccccc1)NC(NC(=S)Nc1cccc2cccnc12)C(Cl)(Cl)Cl` (stereo not drawn) [salubrinal, (2E)-3-Phenyl-N-[2,2,2-trichloro-1-[[(8-quinolinylamino)thioxomethyl]amino]ethyl]2-propenamide, reference compound], in [18], the BALF elastase activity entry is on record as “attenuated”; the BALF protein levels result is “ameliorated”; the “BALF total cell count” value is recorded as “ameliorated”; the “Masson's trichrome staining of lungs (collagen, fibrotic changes)” value was “decreased collagen levels and lung fibrotic changes”. In data set [18], the “alveolar mean linear intercept (Lm)” value is given as “attenuated”, the “lung CHOP levels (immunoblot)” value is listed as “decrease”, the lung hydroxyproline levels entry was “decreased collagen levels” and the “lung phosphorylated eIF2α (immunoblot)” value is listed as “significant increase”. In [18], the “lung volumes (PV curve), lung compliance and inspiratory capacity” value is reported as “prevented Br2-induced increase”; the plasma elastase levels entry was “attenuated”.
Take nitrite [reference compound]: the “survival (Kaplan Meier)” value in data set [12] is given as “improved survival early”.
